# Columns and labels:
# Type in all cases: in vivo
# [1] = system: Abutilon theophrasti (ABUTH); test: Post-emergence herbicidal action
# Protocol: (§1) Seeds of monocotyledonous and dicotyledonous weeds and crop plants are placed in sandy loam in plastic or organic plant pots, covered with soil and cultivated in a greenhouse under controlled growth conditions. 2 to 3 weeks after sowing, the test plants are treated at the one-leaf stage. The compounds of the invention, formulated in the form of wettable powders (WP) or as emulsion concentrates (EC), are then sprayed onto the green parts of the plants as aqueous suspension or emulsion with addition of 0.5% additive at a water application rate of 600 l/ha (converted). After the test plants have been kept in the greenhouse under optimum growth conditions for about 3 weeks, the activity of the preparations is rated visually in comparison to untreated controls. For example, 100% activity=the plants have died, 0% activity=like control plants.
# (§2) The abbreviations used here have the following meanings: • ABUTH Abutilon theophrasti • AMARE Amaranlhus retroflexus • CYPES Cyperus serotinus • ECHCGEchinocloa crus galli • LOLRI Lolium rigidum Gaudin • PHBPU Pharbitis purpurcum • SETVI Setaria viridis • VERPE Veronica persica • ALOMY Alopccurus myosuroides • AVEFA Avena fatua • DIGSA Digitaria sanguinalis • LOLMU Lolium multiflorum • MATIN Matricaria inodora • POLCO Polygonum convolvulus • STEME Stellaria media • VIOTR Viola tricolor
# (§3) The compounds according to the invention were tested by the post-emergence and pre-emergence methods under the conditions described above for comparative purposes with the structurally closest compounds known from WO 2005/089551 A1 (D1).
# [2] = system: Alopecurus myosuroides (ALOMY); test: Post-emergence herbicidal action
# Protocol: as §1, §2, §3
# Avena fatua (AVEFA) [3] = test: Post-emergence herbicidal action
# Protocol: as §1, §2, §3
# [4] = system: Echinochloa crus-galli (ECHCG); test: Post-emergence herbicidal action
# Protocol: as §1, §2, §3
# [5] = system: Lolium multiflorum (LOLMU); test: Post-emergence herbicidal action
# Protocol: as §1, §2, §3
# [6] = system: Matricaria inodora (MATIN); test: Post-emergence herbicidal action
# Protocol: as §1, §2, §3
# [7] = system: Polygonum convolvulus (POLCO); test: Post-emergence herbicidal action; conditions: 80 g of a.i./ha, comparative test
# Protocol: as §1, §2, §3
# Setaria viridis (SETVI) [8] = test: Post-emergence herbicidal action
# Protocol: as §1, §2, §3
# Stellaria media (STEME) [9] = test: Post-emergence herbicidal action
# Protocol: as §1, §2, §3
# [10] = system: Amaranthus retroflexus (AMARE); test: Post-emergence herbicidal action; conditions: 320 g/ha, visual rating after about 3 weeks vs untreated controls, 100% = plants have died
# Protocol: as §1, §2
# [11] = system: Pharbitis purpurea (PHBPU); test: Post-emergence herbicidal action; conditions: 320 g/ha, visual rating after about 3 weeks vs untreated controls, 100% = plants have died
# Protocol: as §1, §2
# Veronica persica (VERPE) [12] = test: Post-emergence herbicidal action; conditions: 320 g/ha, visual rating after about 3 weeks vs untreated controls, 100% = plants have died
# Protocol: as §1, §2
# Viola tricolor (VIOTR) [13] = test: Post-emergence herbicidal action; conditions: 320 g/ha, visual rating after about 3 weeks vs untreated controls, 100% = plants have died
# Protocol: as §1, §2
# [14] = system: Alopecurus myosuroides (ALOMY); test: Pre-emergence herbicidal action
# Excerpt: as §2
# (§4) Seeds of monocotyledonous and dicotyledonous weed plants and crop plants are placed in plastic or organic plant pots and covered with soil. The compounds of the invention, formulated in the form of wettable powders (WP) or as emulsion concentrates (EC), are then applied onto the surface of the covering soil as aqueous suspension or emulsion with addition of 0.5% additive at a water application rate of 600 l/ha (converted). After the treatment, the pots are placed in a greenhouse and kept under good growth conditions for the trial plants. After about 3 weeks, the effect of the preparations is scored visually in comparison with untreated controls as percentages. For example, 100% activity=the plants have died, 0% activity=like control plants.
# as §3
# [15] = system: Echinochloa crus-galli (ECHCG); test: Pre-emergence herbicidal action
# Excerpt: as §2, §4, §3
# [16] = system: Matricaria inodora (MATIN); test: Pre-emergence herbicidal action
# Excerpt: as §2, §4, §3
# [17] = system: Polygonum convolvulus (POLCO); test: Pre-emergence herbicidal action
# Excerpt: as §2, §4, §3
# Setaria viridis (SETVI) [18] = test: Pre-emergence herbicidal action
# Excerpt: as §2, §4, §3
# Stellaria media (STEME) [19] = test: Pre-emergence herbicidal action
# Excerpt: as §2, §4, §3
# Viola tricolor (VIOTR) [20] = test: Pre-emergence herbicidal action
# Excerpt: as §2, §4, §3
# [21] = system: Abutilon theophrasti (ABUTH); test: Pre-emergence herbicidal action; conditions: 320 g/ha, visual scoring after about 3 weeks vs untreated controls, 100% = plants have died
# Excerpt: as §2, §4
# [22] = system: Amaranthus retroflexus (AMARE); test: Pre-emergence herbicidal action; conditions: 320 g/ha, visual scoring after about 3 weeks vs untreated controls, 100% = plants have died
# Excerpt: as §2, §4
# Avena fatua (AVEFA) [23] = test: Pre-emergence herbicidal action; conditions: 320 g/ha, visual scoring after about 3 weeks vs untreated controls, 100% = plants have died
# Excerpt: as §2, §4
# [24] = system: Cyperus serotinus (CYPES); test: Pre-emergence herbicidal action; conditions: 320 g/ha, visual scoring after about 3 weeks vs untreated controls, 100% = plants have died
# Excerpt: as §2, §4
# [25] = system: Lolium multiflorum (LOLMU); test: Pre-emergence herbicidal action; conditions: 320 g/ha, visual scoring after about 3 weeks vs untreated controls, 100% = plants have died
# Excerpt: as §2, §4
# [26] = system: Pharbitis purpurea (PHBPU); test: Pre-emergence herbicidal action; conditions: 320 g/ha, visual scoring after about 3 weeks vs untreated controls, 100% = plants have died
# Excerpt: as §2, §4
# Veronica persica (VERPE) [27] = test: Pre-emergence herbicidal action; conditions: 320 g/ha, visual scoring after about 3 weeks vs untreated controls, 100% = plants have died
# Excerpt: as §2, §4
# [28] = system: harmful plants such as Abutilon theophrasti, Alopecurus myosuroides, Amaranthus retroflexus, Avena fatua, Echinochloa crus-galli, Matricaria inodora, Pharbitis …; test: Post-emergence herbicidal action, summary in text; conditions: post-emergence treatment
# Protocol: as §1
# In this case, for example, in the post-emergence process, the compounds No. 1-001 and 111-001 have very good herbicidal activity (80% to 100% herbicidal action) against harmful plants such as Abutilon theophrasti, Alopecurus myosuroides, Amaranthus retroflexus, Avena fatua, Echinochloa crus-galli, Matricaria inodora, Pharbitis purpurea, Setaria viridis, Stellaria media, Veronica persica and Viola tricolor at an application rate of 0.32 kg of active substance or less per hectare. At the same time, some compounds according to the invention leave graminaceous crops such as barley, wheat, rye, millet/sorghum, maize, rice or sugarcane virtually undamaged when applied by the post-emergence method, even at high active compound dosages. Some substances are additionally also benign to dicotyledonous crops such as soya, cotton, oilseed rape or sugarbeet.
# [29] = system: harmful plants such as Alopecurus myosuroides, Amaranthus retroflexus, Avena fatua, Echinochloa crus-galli, Matricaria inodora, Pharbitis purpurea, Polygonum …; test: Pre-emergence herbicidal action, summary in text; conditions: pre-emergence treatment
# Excerpt: as §4
# At the same time, some compounds according to the invention leave graminaceous crops such as barley, wheat, rye, millet/sorghum, maize, rice or sugarcane virtually undamaged when applied by the pre-emergence method, even at high active compound dosages. Some compounds are additionally also benign to dicotyledonous crops such as soya, cotton, oilseed rape or sugarbeet.
# [30] = 80 g of a.i./ha, comparative test
# [31] = 320 g/ha, visual rating after about 3 weeks vs untreated controls, 100% = plants have died
# [32] = 320 g/ha, visual scoring after about 3 weeks vs untreated controls, 100% = plants have died
smiles,measurement,setting,value
"FC(F)(F)c1cnn(-c2cc(C3CC3)nc(Oc3ccnc(C(F)(F)F)c3)n2)c1 [Example I-001, 4-cyclopropyl-6-[4-(trifluoromethyl)-1H-pyrazol-1-yl]-2-{[2-(trifluoromethyl)pyridin-4-yl]oxy}pyrimidine]",Herbicidal action against ABUTH,[1]; [30],90%
same,Post-emergence action ABUTH,[1]; [31],100%
same,Herbicidal action against ALOMY,[2]; [30],80%
same,Post-emergence action ALOMY,[2]; [31],90%
same,Herbicidal action against AVEFA,Avena fatua (AVEFA) [3]; [30],80%
same,Post-emergence action AVEFA,Avena fatua (AVEFA) [3]; [31],90%
same,Herbicidal action against ECHCG,[4]; [30],90%
same,Post-emergence action ECHCG,[4]; [31],90%
same,Herbicidal action against LOLMU,[5]; [30],90%
same,Post-emergence action LOLMU,[5]; [31],100%
same,Herbicidal action against MATIN,[6]; [30],90%
same,Post-emergence action MATIN,[6]; [31],90%
same,Herbicidal action against POLCO,[7],100%
same,Herbicidal action against SETVI,Setaria viridis (SETVI) [8]; [30],90%
same,Post-emergence action SETVI,Setaria viridis (SETVI) [8]; [31],100%
same,Herbicidal action against STEME,Stellaria media (STEME) [9]; [30],90%
same,Post-emergence action STEME,Stellaria media (STEME) [9]; [31],100%
same,Post-emergence action AMARE,[10],90%
same,Post-emergence action PHBPU,[11],90%
same,Post-emergence action VERPE,Veronica persica (VERPE) [12],100%
same,Post-emergence action VIOTR,Viola tricolor (VIOTR) [13],100%
same,Herbicidal action against ALOMY,[14]; [30],100%
same,Pre-emergence action ALOMY,[14]; [32],100%
same,Herbicidal action against ECHCG,[15]; [30],100%
same,Pre-emergence action ECHCG,[15]; [32],100%
same,Herbicidal action against MATIN,[16]; [30],100%
same,Pre-emergence action MATIN,[16]; [32],100%
same,Herbicidal action against POLCO,[17]; [30],100%
same,Pre-emergence action POLCO,[17]; [32],100%
same,Herbicidal action against SETVI,Setaria viridis (SETVI) [18]; [30],100%
same,Pre-emergence action SETVI,Setaria viridis (SETVI) [18]; [32],100%
same,Herbicidal action against STEME,Stellaria media (STEME) [19]; [30],100%
same,Pre-emergence action STEME,Stellaria media (STEME) [19]; [32],100%
same,Herbicidal action against VIOTR,Viola tricolor (VIOTR) [20]; [30],100%
same,Pre-emergence action VIOTR,Viola tricolor (VIOTR) [20]; [32],100%
same,Pre-emergence action ABUTH,[21],90%
same,Pre-emergence action AMARE,[22],90%
same,Pre-emergence action AVEFA,Avena fatua (AVEFA) [23],100%
same,Pre-emergence action CYPES,[24],80%
same,Pre-emergence action LOLMU,[25],100%
same,Pre-emergence action PHBPU,[26],100%
same,Pre-emergence action VERPE,Veronica persica (VERPE) [27],100%
same,herbicidal action against harmful plants (in words),[28],good herbicidal action
same,herbicidal action against harmful plants (in words),[29],good herbicidal action

# Reference: patent publication US12509445B2, “Herbicidally active 4-cyclopropyl-6-[4-(trifluormethyl)pyrazol-1-yl)]pyrimidines” (Bayer Aktiengesellschaft, priority 2019, dated 2025)
